Measurements taken from US7655665B2, “Nitromethylene derivatives and their use” (East China University of Science and Technology, priority 2004, dated 2010).

Experiments:
[1] = system: Aphis craccivoral; assay: Insecticidal activity against Aphis craccivoral by immersing (dipping aphids on bean sprout); type: in vivo; conditions: 500 ppm; immersing (dipped 5 seconds); counted after 24 hours; 23° C.
Protocol: (§1) Test on the insecticidal activity of Compound Nos. 1-227
Aphis, which belongs to Homoptera and has a piercing-sucking mouthpart, is a common insect for agricultural plant. Aphis craccivoral was tested by the way of immersing.
Test method: exactly weighed various samples were independently added to N,N-dimethylformamide to form a 10 g/L stock solution. The mixture was diluted with 0.2 mL/L aqueous Triton X-100 solution to a concentration of 500 ug/mL. After stably sucking on bean sprout, the adult aphis without wings together with bean sprout was dipped into 500 ug/mL dilution, taken out after 5 seconds, and the excess dilution was sucked out with bibulous paper and the adult aphis without wings was incubated in clean vessel at a constant temperature of 23° C. Each concentration was repeated for 3 times and the control group contained 0.2 mL/L aqueous Triton X-100 solution. The number of killed aphis was counted after 24 hours to calculate the mortality.

[2] = system: Nilaparvata lugens; assay: Insecticidal activity against Nilaparvata lugens (planthopper) by spraying; type: in vivo; conditions: 500 ppm; spraying 2 ml; counted after 24 hours
Protocol: as §1
Planthopper, which belongs to Homoptera and has a piercing-sucking mouthpart, is a common insect for agricultural plant. Nilaparvata lugens was tested by the way of spraying.
Test method: the test compound was exactly formulated into a solution having a certain concentration and clean water was used as a blank control. Each process was repeated for 3 tumblers (3 times). 2 ml of solution was sprayed uniformly to each tumbler by a mini manual sprayer. 10 Nilaparvata lugens were introduced to every sink 6 hours before spraying. Three series of experiments were conducted. The number of killed Nilaparvata lugens was counted after 24 hours to calculate the mortality.

Row | SMILES | mortality (%) (500 ppm) Aphis [1] | mortality (%) (500 ppm) Nilaparvata lugens [2]
1 | COCCOC1CCC([N+](=O)[O-])=C2N(CC3CCOC3)CCN21 (stereo not drawn) [Compound 66] | 100 | 100
2 | CCOCCOC1CCC([N+](=O)[O-])=C2N(CC3CCOC3)CCN21 (stereo not drawn) [Compound 67] | 100 | 100
3 | CC1CC(O)N2CCN(CC3CCOC3)C2=C1[N+](=O)[O-] (stereo not drawn) [Compound 68] | 2 | 7
4 | CC1CC(O)N2CCN(Cc3ccc(Cl)nc3)C2=C1[N+](=O)[O-] (stereo not drawn) [Compound 69] | 45 | 56
5 | CC1CC(O)N2CCN(Cc3cnc(Cl)s3)C2=C1[N+](=O)[O-] (stereo not drawn) [Compound 70] | 33 | 12
6 | O=[N+]([O-])C1=C2N(Cc3ccc(Cl)nc3)CCCN2C(O)CC1 (stereo not drawn) [Compound 71] | 6 | 0
7 | COC1CCC([N+](=O)[O-])=C2N(Cc3ccc(Cl)nc3)CCCN21 (stereo not drawn) [Compound 72] | 35 | 100
8 | CCOC1CCC([N+](=O)[O-])=C2N(Cc3ccc(Cl)nc3)CCCN21 (stereo not drawn) [Compound 73] | 34 | 56
9 | O=[N+]([O-])C1=C2N(Cc3ccc(Cl)nc3)CCCN2C(OCCCl)CC1 (stereo not drawn) [Compound 74] | 12 | 13
10 | O=[N+]([O-])C1=C2N(Cc3ccc(Cl)nc3)CCCN2C(OCC(F)(F)F)CC1 (stereo not drawn) [Compound 75] | 88 | 100
11 | CCCOC1CCC([N+](=O)[O-])=C2N(Cc3ccc(Cl)nc3)CCCN21 (stereo not drawn) [Compound 76] | 100 | 100
12 | CC(C)OC1CCC([N+](=O)[O-])=C2N(Cc3ccc(Cl)nc3)CCCN21 (stereo not drawn) [Compound 77] | 56 | 78
13 | O=[N+]([O-])C1=C2N(Cc3ccc(Cl)nc3)CCCN2C(OC(C(F)(F)F)C(F)(F)F)CC1 (stereo not drawn) [Compound 78] | 68 | 51
14 | CCCCOC1CCC([N+](=O)[O-])=C2N(Cc3ccc(Cl)nc3)CCCN21 (stereo not drawn) [Compound 79] | 52 | 61
15 | CC(C)COC1CCC([N+](=O)[O-])=C2N(Cc3ccc(Cl)nc3)CCCN21 (stereo not drawn) [Compound 80] | 23 | 34
16 | CCC(C)OC1CCC([N+](=O)[O-])=C2N(Cc3ccc(Cl)nc3)CCCN21 (stereo not drawn) [Compound 81] | 12 | 8
17 | CC(C)(C)OC1CCC([N+](=O)[O-])=C2N(Cc3ccc(Cl)nc3)CCCN21 (stereo not drawn) [Compound 82] | 12 | 34
18 | COCCOC1CCC([N+](=O)[O-])=C2N(Cc3ccc(Cl)nc3)CCCN21 (stereo not drawn) [Compound 83] | 38 | 26
19 | CCOCCOC1CCC([N+](=O)[O-])=C2N(Cc3ccc(Cl)nc3)CCCN21 (stereo not drawn) [Compound 84] | 26 | 39
20 | O=[N+]([O-])C1=C2N(Cc3cnc(Cl)s3)CCCN2C(O)CC1 (stereo not drawn) [Compound 85] | 12 | 23
21 | COC1CCC([N+](=O)[O-])=C2N(Cc3cnc(Cl)s3)CCCN21 (stereo not drawn) [Compound 86] | 100 | 100

Row | SMILES | mortality (%) (500 ppm) Aphis [1] | mortality (%) (500 ppm) Nilaparvata lugens [2]
22 | CCOC1CCC([N+](=O)[O-])=C2N(Cc3cnc(Cl)s3)CCCN21 (stereo not drawn) [Compound 87] | 100 | 100
23 | O=[N+]([O-])C1=C2N(Cc3cnc(Cl)s3)CCCN2C(OCCCl)CC1 (stereo not drawn) [Compound 88] | 23 | 34
24 | O=[N+]([O-])C1=C2N(Cc3cnc(Cl)s3)CCCN2C(OCC(F)(F)F)CC1 (stereo not drawn) [Compound 89] | 100 | 100
25 | CCCOC1CCC([N+](=O)[O-])=C2N(Cc3cnc(Cl)s3)CCCN21 (stereo not drawn) [Compound 90] | 34 | 51
26 | CC(C)OC1CCC([N+](=O)[O-])=C2N(Cc3cnc(Cl)s3)CCCN21 (stereo not drawn) [Compound 91] | 69 | 71
27 | O=[N+]([O-])C1=C2N(Cc3cnc(Cl)s3)CCCN2C(OC(C(F)(F)F)C(F)(F)F)CC1 (stereo not drawn) [Compound 92] | 6 | 5
28 | CCCCOC1CCC([N+](=O)[O-])=C2N(Cc3cnc(Cl)s3)CCCN21 (stereo not drawn) [Compound 93] | 7 | 8
29 | CC(C)COC1CCC([N+](=O)[O-])=C2N(Cc3cnc(Cl)s3)CCCN21 (stereo not drawn) [Compound 94] | 8 | 3
30 | CCC(C)OC1CCC([N+](=O)[O-])=C2N(Cc3cnc(Cl)s3)CCCN21 (stereo not drawn) [Compound 95] | 4 | 8
31 | CC(C)(C)OC1CCC([N+](=O)[O-])=C2N(Cc3cnc(Cl)s3)CCCN21 (stereo not drawn) [Compound 96] | 80 | 100
32 | COCCOC1CCC([N+](=O)[O-])=C2N(Cc3cnc(Cl)s3)CCCN21 (stereo not drawn) [Compound 97] | 78 | 100
33 | CCOCCOC1CCC([N+](=O)[O-])=C2N(Cc3cnc(Cl)s3)CCCN21 (stereo not drawn) [Compound 98] | 4 | 7
34 | O=[N+]([O-])C1=C2N(CC3CCOC3)CCCN2C(O)CC1 (stereo not drawn) [Compound 99] | 6 | 7
35 | COC1CCC([N+](=O)[O-])=C2N(CC3CCOC3)CCCN21 (stereo not drawn) [Compound 100] | 3 | 8
36 | CCOC1CCC([N+](=O)[O-])=C2N(CC3CCOC3)CCCN21 (stereo not drawn) [Compound 101] | 76 | 90
37 | O=[N+]([O-])C1=C2N(CC3CCOC3)CCCN2C(OCCCl)CC1 (stereo not drawn) [Compound 102] | 0 | 89
38 | O=[N+]([O-])C1=C2N(CC3CCOC3)CCCN2C(OCC(F)(F)F)CC1 (stereo not drawn) [Compound 103] | 6 | 100
39 | CCCOC1CCC([N+](=O)[O-])=C2N(CC3CCOC3)CCCN21 (stereo not drawn) [Compound 104] | 3 | 24
40 | CC(C)OC1CCC([N+](=O)[O-])=C2N(CC3CCOC3)CCCN21 (stereo not drawn) [Compound 105] | 10 | 98
41 | CCCCOC1CCC([N+](=O)[O-])=C2N(CC3CCOC3)CCCN21 (stereo not drawn) [Compound 107] | 7 | 0
42 | CC(C)COC1CCC([N+](=O)[O-])=C2N(CC3CCOC3)CCCN21 (stereo not drawn) [Compound 108] | 1 | 9
